Test results taken from ChEMBL document CHEMBL3351551, “Neuraminidase inhibitory activities of quaternary isoquinoline alkaloids from Corydalis turtschaninovii rhizome” (Bioorg Med Chem, 2014).
Converted amounts (≈) assume the structure as drawn.

Assays:
[1] = Inhibition of Clostridium perfringens neuraminidase 4-methylumbelliferyl-alpha-D-Nacetylneuraminic acid sodium salt hydrate as substrate by fluorometry
[2] = Inhibition of Clostridium perfringens neuraminidase by Dixon plot
[3] = target: Neuraminidase (Influenza A virus (strain A/USSR/90/1977 H1N1), UniProt P03469); experiment: Inhibition of recombinant Influenza A virus H1N1 neuraminidase using 4-methylumbelliferyl-alpha-D-Nacetylneuraminic acid sodium salt hydrate as substrate by fluorometry
[4] = system: Clostridium perfringens; experiment: Antibacterial activity against Clostridium perfringens in tryptic soy broth after 24 hrs; assay type: functional
[5] = system: Clostridium perfringens; experiment: Inhibition of Clostridium perfringens neuraminidase 4-methylumbelliferyl-alpha-D-Nacetylneuraminic acid sodium salt hydrate as substrate at 100 uM by fluorometry

Sequence of Neuraminidase (P03469 whole entry): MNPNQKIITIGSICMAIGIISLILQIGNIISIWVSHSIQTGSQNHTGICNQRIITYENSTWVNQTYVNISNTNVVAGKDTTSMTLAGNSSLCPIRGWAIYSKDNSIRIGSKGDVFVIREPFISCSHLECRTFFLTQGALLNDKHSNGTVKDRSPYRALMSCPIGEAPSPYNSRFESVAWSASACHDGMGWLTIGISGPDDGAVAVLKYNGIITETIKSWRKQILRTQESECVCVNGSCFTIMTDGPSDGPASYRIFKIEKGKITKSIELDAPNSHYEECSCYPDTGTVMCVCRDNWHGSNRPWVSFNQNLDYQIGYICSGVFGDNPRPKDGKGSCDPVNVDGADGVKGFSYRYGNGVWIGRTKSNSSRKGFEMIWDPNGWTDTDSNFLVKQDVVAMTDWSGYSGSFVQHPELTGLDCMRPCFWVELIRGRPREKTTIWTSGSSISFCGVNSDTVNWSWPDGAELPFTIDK

With `COc1ccc2cc3[n+](cc2c1OC)CCc1cc2c(cc1-3)OCO2` [BERBERINE] the IC50 [1] was 13.5 µM, the Ki [2] was 11.9 µM and the IC50 [3] was 38.5 µM. For the same compound, the MIC [4] was 52.2 µM.
Compound `COc1cc2c(cc1OC)[C@H]1[C@@H](C)c3ccc(OC)c(OC)c3CN1CC2` has an inhibition [5] of 12.7%.
Work on `COc1cc2c(cc1O)CC[n+]1cc3c(OC)c(OC)ccc3c(C)c1-2` yielded an IC50 [1] of 41.3 µM and an IC50 [3] of 80.5 µM.
With `COc1cc2c(cc1OC)-c1c(C)c3cc(OC)c(OC)cc3c[n+]1CC2` the IC50 [1] was 32.6 µM.
Work on `c1c2c(cc3c1OCO3)-c1cc3cc4c(cc3c[n+]1CC2)OCO4` yielded an IC50 [1] of 65.2 µM and an IC50 [3] of 126 µM.
Compound `c1cc2c(c3c1CC1c4cc5c(cc4CCN1C3)OCO5)OCO2` (configuration not stated) has an inhibition [5] of 4.7%.
Work on `COc1cc2c(cc1O)CC[n+]1cc3c(OC)c(OC)ccc3cc1-2` [JATRORRHIZINE] yielded an IC50 [1] of 37 µM and an IC50 [3] of 66.2 µM.
With `COc1cc(/C=C/C(=O)CC(=O)/C=C/c2ccc(O)c(OC)c2)ccc1O` [CURCUMIN] the IC50 [1] was 6 µM.
`CC1(C)S[C@@H]2[C@H](NC(=O)[C@H](N)c3ccccc3)C(=O)N2[C@H]1C(=O)O` [AMPICILLIN] gave an MIC [4] of 0.3 µM (≈ 0.105 µg/mL).
In the case of `COc1cc2c(cc1OC)-c1c(OC)c(OC)cc3c1[C@H](C2)N(C)CC3` [GLAUCINE], the IC50 [1] is reported as 96.9 µM.
Work on `COc1cc2c(cc1OC)-c1cc3ccc(OC)c(OC)c3c[n+]1CC2` [PALMITINE] yielded an IC50 [1] of 12.8 µM, a Ki [2] of 16.9 µM and an IC50 [3] of 33.1 µM. For the same compound, the MIC [4] was 44.7 µM.
In the case of `c1c2c(cc3c1OCO3)-c1cc3ccc4c(c3c[n+]1CC2)OCO4` [COPTISINE], the IC50 [1] is reported as 25.1 µM and the IC50 [3] is reported as 25.3 µM.
